Inconclusive results are not listed. Calls of active or inactive are those of the source. The rule behind the calls is not given here.

System in the first assay: not listed separately
Description: PubChem AID 488836. Conditions: C. albicans CaCi-2 growth with fluconazole, Alamar Blue, 48 h; at 0.6 µM (top of the series).
Consider `COc1ccc2c(c1)c1nc3n(c(=O)c1n2CC(=O)N1CCC(C)CC1)CCS3`, for which the activity change, negative = inhibition was 13.2% (inactive).

The same assay, now with this note: C. albicans CaCi-2 growth with fluconazole, Alamar Blue, 48 h; at 6 µM (top of the series).
As for `O=C(Cn1c2ccccc2c2nc3n(c(=O)c21)CCCS3)c1ccc(F)cc1`, the activity change, negative = inhibition is -14.2% (inactive).
For the compound `COC(=O)Cn1nc(C)c2ccccc21`, the activity change, negative = inhibition is -0.315% (inactive).
As to `COc1ccc(OC)c2c(C)cc(N3CCN(C(=O)c4ccc(Cl)cc4)CC3)nc12`, the activity change, negative = inhibition was -2.61% (inactive).
As for `CCCNC(=O)Cn1nc(-c2ccccc2)c2cc(Cl)ccc21`, the activity change, negative = inhibition is 38.1% (inactive).
For `c1ccc(-c2n[nH]c3ccccc23)cc1`, the activity change, negative = inhibition is 4.54% (inactive).
On the same count and under the same terms, for `O=S(=O)(c1ccc(Cl)cc1)N1CCN(c2ccnc3cc(Cl)ccc23)CC1` the value was -15.5% (inactive); for `O=C(Cn1c2ccccc2c2nc3n(c(=O)c21)CCS3)NCCc1ccc(Cl)cc1`, -13.4% (inactive).
Still for that read-out and setting: for `O=C(c1ccc(Cl)cc1)N1CCN(c2cc(C(F)(F)F)nc3ccccc23)CC1` the value was -20% (inactive); for `O=C(Cn1nc(-c2ccccc2)c2ccccc21)NCc1ccc(Cl)cc1`, -18.4% (inactive).
As for `COC(=O)Cn1nc(-c2ccc(Cl)cc2)c2ccccc21`, the activity change, negative = inhibition is -11% (inactive).
`COc1ccc2c(c1)c1nc3n(c(=O)c1n2CC(=O)N1CCC(Cc2ccccc2)CC1)CCS3`: the activity change, negative = inhibition was -7.32% (inactive).
On to `O=c1c2[nH]c3ccccc3c2nc2n1CCS2`, for which the activity change, negative = inhibition is -39.9% (inactive).
For the compound `O=C(O)c1nn(Cc2ccc(Cl)cc2)c2ccccc12`, the activity change, negative = inhibition was -11.2% (inactive).
On the same count and under the same terms, the value for `Cc1nn(S(C)(=O)=O)c2ccccc12` was -21% (inactive).
In the case of `CCCNC(=O)Cn1nc(-c2ccccc2)c2ccccc21`, the activity change, negative = inhibition was 12.1% (inactive).
Same read-out and setting: for `CCOC(=O)c1c2ccccc2nn1Cc1ccc(Cl)cc1` the value was -7.34% (inactive); for `O=C(Cn1nc(-c2ccccc2)c2ccccc21)N1CCc2ccccc2C1`, -26.7% (inactive); for `CCOC(=O)c1nn(Cc2ccc(Cl)cc2)c2ccccc12`, -6.26% (inactive).
On the same count and under the same terms, the value for `O=C(O)c1c2ccccc2nn1Cc1ccc(Cl)cc1` was -8.46% (inactive); that for `O=C(Cn1nc(C(=O)N2CCCCC2)c2ccccc21)N1CCOCC1` was -5.52% (inactive); that for `O=C(Cn1nc(-c2ccccc2)c2cc(Cl)ccc21)N1CCOCC1` was -5.03% (inactive).

The test system of another assay is C. albicans CaCi-2 (fluconazole-resistant clinical isolate) growth with fluconazole, Alamar Blue, 48 h. Briefly: PubChem AID 488836.
Settings: not given
Turning to `O=C(c1ccc(Cl)c(Cl)c1)N1CCN(c2ccnc3cc(Cl)ccc23)CC1`, the AC50 was 1020 nM.
For `O=C(Cn1c2ccccc2c2nc3n(c(=O)c21)CCS3)N1CCCC1`, the AC50 is 2300 nM.
Turning to `CCN(CC)C(=O)Cn1c2ccccc2c2nc3n(c(=O)c21)CCS3`, the AC50 is 2280 nM.
On the same count and under the same terms, for `O=C(c1ccc(Cl)cc1)N1CCN(c2ccc(Cl)cc2)CC1` the value was 6130 nM; for `O=C(c1cccs1)N1CCN(c2ccnc3cc(Cl)ccc23)CC1`, 2720 nM; for `O=C(Nc1ccc(C(F)(F)F)cc1)N1CCN(c2ccnc3cc(Cl)ccc23)CC1`, 1810 nM.
Take `CC1CCN(C(=O)Cn2c3ccccc3c3nc4n(c(=O)c32)CCS4)CC1`: the AC50 is 2940 nM.
On the same count and under the same terms, for `O=c1c2[nH]c3ccc(F)cc3c2nc2n1CCS2` the value was 4080 nM.
The same measure, in the same setting: the value for `CC1CCN(C(=O)Cn2c3ccc(F)cc3c3nc4n(c(=O)c32)CCCS4)CC1` was 3540 nM; that for `COC(=O)Cn1nc(-c2ccccc2)c2ccccc21` was 1260 nM; that for `O=C(c1ccccc1)N1CCN(c2ccnc3cc(Cl)ccc23)CC1` was 3350 nM.
Regarding `COC(=O)Cn1nc(-c2ccc(C)cc2)c2ccccc21`, the AC50 was 103 nM.
Same read-out and setting: the value for `O=C(c1ccc(Cl)cc1)N1CCN(c2ccnc3cc(Cl)ccc23)CC1` was 651 nM.
Turning to `CC1CCN(C(=O)Cn2c3ccccc3c3nc4n(c(=O)c32)CCCS4)CC1`, the AC50 is > 6000 nM (inactive).
Turning to `Cc1ccc(C(=O)N2CCN(c3ccnc4cc(Cl)ccc34)CC2)cc1`, the AC50 was 2330 nM.
Consider `O=C(c1csc2ccccc12)N1CCN(c2ccnc3cc(Cl)ccc23)CC1`, for which the AC50 was 1680 nM.
Take `COc1ccc(NC(=O)Cn2c3ccccc3c3nc4n(c(=O)c32)CCS4)cc1`: the AC50 is 4100 nM.

These data come from PubChem BioAssay AID488836 (Broad Institute, 2010).
